Laboratory results: US5118705A, “Water soluble salts of purpuromycin and pharmaceutical formulations thereof” (Gruppo Lepetit S.p.A., priority 1990, dated 1992)
Values after ≈ are worked out from the molar mass of the structure shown. “Also recorded” adds a separate entry of the source. Counter-ions that a name gives are not always drawn. Like-named read-outs stand apart in the source and are kept apart here. Each block holds one compound with its values, some of them ahead of it.

Legend:
[1] = conjugate acid of the second basic group; cited from earlier work
[2] = Biological activity (general statement); conditions: formed by hydrolysis of the carbomethoxy group of purpuromycin
[3] = system: Bacteroides fragilis ATCC 23745; assay: In vitro activity, M.I.C., microbroth dilution; assay type: cell-based; conditions: salts calculated as weight of purpuromycin; 37° C., 48 h, anaerobic hood
Method: (§1) MIC were determined by the microbroth dilution test. Bacteria were grown at 37° C., fungi at 30° C. Incubation was for 20 h, except for Propionibacterium acnes, Bacteroides fragilis, Neisseria gonorrhoeae, Haemophilus influenzae (48 h) and Trichophyton mentagrophytes (72h) Neisseria gonorrhoeae and Haemophilus influenzae were incubated in a CO2 -enriched (5%) atmosphere; Propionibacterium acnes and Bacteroides fragilis in an anaerobic hood. Media used were: Oxoid Iso-sensitest broth (Staphylococci, Enterococcus faecalis and Escherichia coli); Difco Todd-Hewitt broth (streptococci); Difco GC base broth with 1% BBL IsoVitaleX (Neisseria gonorrhoeae); Difco Brain-Heart Infusion broth with 1% Difco supplement C (Haemophilus influenzae); Difco Wilkins-Chalgren broth (Propionibacterium acnes and Bacteroides fragilis); Difco Yeast Nitrogen Base broth with 1.5 g/1 asparagine (Candida albicans); Difco Sabouraud-dextrose broth (Trichophyton mentagrophytes). Inocula were approximately 10^4 CFU/ml.

[4] = system: Candida albicans SKF 2270; assay: In vitro activity, M.I.C., microbroth dilution; assay type: cell-based; conditions: salts calculated as weight of purpuromycin; 30° C., 20 h
Method: as §1

[5] = system: Enterococcus faecalis ATCC 7080; assay: In vitro activity, M.I.C., microbroth dilution; assay type: cell-based; conditions: salts calculated as weight of purpuromycin; 37° C., 20 h
Method: as §1

[6] = system: Escherichia coli SKF 12140; assay: In vitro activity, M.I.C., microbroth dilution; assay type: cell-based; conditions: salts calculated as weight of purpuromycin; 37° C., 20 h
Method: as §1

[7] = system: Haemophilus influenzae ATCC 19418; assay: In vitro activity, M.I.C., microbroth dilution; assay type: cell-based; conditions: salts calculated as weight of purpuromycin; 37° C., 48 h, 5% CO2
Method: as §1

[8] = system: Neisseria gonorrhoeae L 997; assay: In vitro activity, M.I.C., microbroth dilution; assay type: cell-based; conditions: salts calculated as weight of purpuromycin; 37° C., 48 h, 5% CO2
Method: as §1

[9] = system: Propionibacterium acnes ATCC 6919; assay: In vitro activity, M.I.C., microbroth dilution; assay type: cell-based; conditions: salts calculated as weight of purpuromycin; 37° C., 48 h, anaerobic hood
Method: as §1

[10] = system: Staph. aureus Tour L 165; assay: In vitro activity, M.I.C., microbroth dilution; assay type: cell-based; conditions: salts calculated as weight of purpuromycin; 37° C., 20 h
Method: as §1

[11] = system: Staph. epidermidis ATCC 12228; assay: In vitro activity, M.I.C., microbroth dilution; assay type: cell-based; conditions: salts calculated as weight of purpuromycin; 37° C., 20 h
Method: as §1

[12] = system: Staph. haemolyticus L602; assay: In vitro activity, M.I.C., microbroth dilution; assay type: cell-based; conditions: salts calculated as weight of purpuromycin; 37° C., 20 h
Method: as §1

[13] = system: Strep. pneumoniae L44; assay: In vitro activity, M.I.C., microbroth dilution; assay type: cell-based; conditions: salts calculated as weight of purpuromycin; 37° C., 20 h
Method: as §1

[14] = system: Strep. pyogenes L49; assay: In vitro activity, M.I.C., microbroth dilution; assay type: cell-based; conditions: salts calculated as weight of purpuromycin; 37° C., 20 h
Method: as §1

[15] = system: Trichophyton mentagrophytes SKF 17410; assay: In vitro activity, M.I.C., microbroth dilution; assay type: cell-based; conditions: salts calculated as weight of purpuromycin; 30° C., 72 h
Method: as §1

[16] = system: Trichomonas vaginalis TVL; assay: In vitro activity, M.I.C., microtiter trays; assay type: cell-based; conditions: salts calculated as weight of purpuromycin; 48 h, anaerobic hood, 37° C.
Method: MIC were performed in flat-bottomed microtiter trays, with 0.2 ml per well. The medium was TYM modified basal medium (Merck) plus 10% horse serum (treated to inactivate complement). The inoculum was ca. 10^5 organisms/ml; incubation was for 48 h in an anaerobic hood (37° C.).The microtiter wells were read using an inverted light microscope. The MIC was taken as the lowest concentration at which no live (mobile) protozoa were seen.

[17] = system: Gardnerella vaginalis; assay: In vitro activity, M.I.C., agar dilution; assay type: cell-based; conditions: salts calculated as weight of purpuromycin; ATCC 14018 and 10 clinical isolates, all same M.I.C.; inoculum ca. 10^5 CFU, 48 h
Method: **The assay was carried out on strain ATCC 14018 and 10 clinical isolates
Incubation was for 48 h in an anaerobic hood (37° C.); inoculum ca. 10^5 CFU.

[18] = system: Trichomonas vaginalis strain TVL; assay: Activity against Trichomonas vaginalis, two-fold tube dilution method; assay type: cell-based; conditions: Trichomonas vaginalis, 48 hours at 37° C.
Method: Trichomonas vaginalis (applicant's internal code TVL) was grown on Trichomonas Culture Medium Base (Merck) plus 10% heat treated horse serum. Inoculum: approximately 10^5 organisms/ml. Incubation: 48 hours at 37° C.

[19] = system: Candida albicans (19 clinical isolates); assay: Activity against Candida strains, two-fold dilution method; assay type: cell-based; conditions: 20 h at 30° C., pH 7.4
Method: (§2) This set of experiments included also one strain each of two other Candida species, Candida tropicalis and Candida kruzei. The M.I.C. were determined by the two-fold dilution method in buffered (0.01 M phosphate buffer, pH 7.4) yeast nitrogen base medium (Difco) supplemented with 1.5 g/liter asparagine in microtiter trays. Inocula were approximately 10^4 colony forming units/ml. Incubation was for 20 h at 30° C. Purpuromycin was dissolved in DMSO and added to the cultures as above. The following TABLE IV reports the MIC values for the whole set of strains.

[20] = system: Candida kruzei L 244; assay: as above; assay type: cell-based; conditions: L244, 20 h at 30° C., pH 7.4
Method: as §2

[21] = system: Candida tropicalis L 243; assay: as above; assay type: cell-based; conditions: L243, 20 h at 30° C., pH 7.4
Method: as §2

[22] = system: Candida albicans ATCC 10231; assay: as above; assay type: cell-based; conditions: Candida albicans
Method: as §2, with “above.” for “above. The following TABLE IV reports the MIC values for the whole set of strains.”

[23] = system: Candida albicans SKF 2270; assay: as above; assay type: cell-based; conditions: Candida albicans
Method: as §2, with “above.” for “above. The following TABLE IV reports the MIC values for the whole set of strains.”

[24] = Solubility and pH of solution; assay type: physicochemical
[25] = Stability; assay type: physicochemical
[26] = system: Gram-positive and Gram-negative bacteria and fungi; conditions: reported in UK Patent 1455128 and U.S. Pat. No. 3,914,257; cited from earlier work
[27] = system: Gardnerella vaginalis ATCC 14018 and other 11 clinical isolates; assay: Activity against Gardnerella vaginalis, standard two fold dilution methods; conditions: for Number of strains with MIC of 8 mcg/ml: MIC 8 mcg/ml
Method: The strains were grown on Casman medium (Difco) plus 5% (v/v) whole rabbit blood and 0.15 (v/v) lysed rabbit blood. Inoculum size: approximately 10^4 colony forming units per spot. Incubation in an anaerobic hood: 48 hours at 37° C.

[28] = system: yeasts; conditions: cited from earlier work

Compound: N=C(N)NCCC[C@H](N)C(=O)O [arginine]
pK3 value [1]: higher than 13

activity of degradation product [2]: almost inactive
Compound: COC1=CC(=O)c2c(O)c3c(c(O)c2C1=O)OC1(C3)CC(O)c2cc3cc(C(=O)O)oc(=O)c3c(O)c2O1 (stereo not drawn) [carboxylic acid derivative]

Compound: COC(=O)c1cc2cc3c(c(O)c2c(=O)o1)OC1(Cc2c(O)c4c(c(O)c2O1)C(=O)C(OC)=CC4=O)CC3O (stereo not drawn) [Purpuromycin]
M.I.C. [3]: 0.13 mg/L | M.I.C. [4]: 1 mg/L | M.I.C. [5]: 0.06 mg/L | M.I.C. [6]: 8 mg/L | M.I.C. [7]: 0.06 mg/L | M.I.C. [8]: 0.06 mg/L | M.I.C. [9]: 0.06 mg/L | M.I.C. [10]: 0.06 mg/L | M.I.C. [11]: 0.06 mg/L | M.I.C. [12]: 0.06 mg/L | M.I.C. [13]: 0.06 mg/L | M.I.C. [14]: 0.06 mg/L | M.I.C. [15]: 1 mg/L | M.I.C. [16]: 4 mg/L | M.I.C. [17]: 16 mg/L | MIC ([18]; dissolved in DMSO, read-out: minimal inhibitory concentration (M.I.C.)): 4 µg/mL (≈ 7.43 µM) | MIC ([18]; read-out: MIC): 4 µg/mL (≈ 7.43 µM) | MIC [19]: 1 to 4 µg/mL (≈ 1.86 to 7.43 µM) | MIC [20]: 4 µg/mL (≈ 7.43 µM) | MIC [21]: 2 µg/mL (≈ 3.71 µM) | MIC ([22]; ATCC10231, 20 h at 30° C., pH 7.4, read-out: MIC): 0.5 µg/mL (≈ 0.929 µM) | MIC ([23]; SKF2270, 20 h at 30° C., pH 7.4, read-out: MIC): 1 µg/mL (≈ 1.86 µM) | solubility ([24]; buffer, pH 8.5, aqueous buffer, pH 8.5 buffer, read-out: solubility in water): 22 µg/mL (≈ 40.9 µM) | solubility (in words) ([24]; solvent): practically insoluble in water and in lower alkanols; also recorded: poorly soluble in most organic solvents | stability (in words) [25]: hydrolysis of the carbomethoxy group; also recorded: undergoes a degradation process | in vitro antimicrobial activity [26]: active in vitro against both Gram-positive and Gram-negative bacteria and fungi | Number of strains with MIC of 8 mcg/ml ([27]; 12 strains tested): 12 strains

MIC ([18]; read-out: MIC): 0.25 µg/mL (≈ 1.46 µM) | MIC ([22]; ATCC10231, 20 h, comparative tests, antibacterial agents, read-out: M.I.C.): > 128 µg/mL | MIC ([23]; SKF2270, 20 h, comparative tests, antibacterial agents, read-out: M.I.C.): > 128 µg/mL | MIC ([27]; Gardnerella vaginalis, read-out: MIC on resistant strains): > 32 µg/mL | Number of strains with MIC of 4 mcg/ml ([27]; MIC 4 mcg/ml, 12 strains tested): 1 strains | Number of strains with MIC of 8 mcg/ml ([27]; 12 strains tested): 3 strains | Number of strains with MIC of 16 mcg/ml ([27]; MIC 16 mcg/ml, 12 strains tested): 4 strains | Number of strains with MIC of 128 mcg/ml ([27]; MIC 128 mcg/ml, 12 strains tested): 3 strains
Compound: Cc1ncc([N+](=O)[O-])n1CCO [Metronidazole]
activity against yeasts [28]: not active against yeasts

Compound: COC(=O)c1cc2cc3c(c(O)c2c(=O)o1)OC1(Cc2c(O)c4c(c(O)c2O1)C(=O)C(OC)=CC4=O)CC3O (stereo not drawn) [arginine salt]
stability (in words) [25]: not sufficiently stable
